Activity calls are given as the source filed them. The rule behind the calls is not given here.
Key:
Type in all cases: functional, cell-based
[1] = target: T1, Muscarinic acetylcholine receptor M1 (Homo sapiens) (UniProt P11229); assay: Positive allosteric modulator activity at human muscarinic receptor subtype 1 expressed in CHO-K1 cells by calcium mobilization assay relative to acetylcholine
T1 sequence (whole entry): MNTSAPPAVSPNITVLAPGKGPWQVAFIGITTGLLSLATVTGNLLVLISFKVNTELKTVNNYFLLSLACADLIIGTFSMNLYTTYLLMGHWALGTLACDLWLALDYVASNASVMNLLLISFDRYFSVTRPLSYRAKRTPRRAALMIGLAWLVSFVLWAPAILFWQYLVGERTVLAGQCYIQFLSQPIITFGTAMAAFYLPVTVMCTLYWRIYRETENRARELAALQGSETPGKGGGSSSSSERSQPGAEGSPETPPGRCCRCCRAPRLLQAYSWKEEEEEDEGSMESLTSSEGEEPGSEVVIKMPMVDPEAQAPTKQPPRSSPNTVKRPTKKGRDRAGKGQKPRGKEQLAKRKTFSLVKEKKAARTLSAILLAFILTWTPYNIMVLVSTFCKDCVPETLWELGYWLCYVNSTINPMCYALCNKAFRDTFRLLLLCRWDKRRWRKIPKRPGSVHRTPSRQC

[2] = target: T2, Muscarinic acetylcholine receptor M1 (Homo sapiens, UniProt P11229); assay: (§1) Positive allosteric modulator activity at human muscarinic receptor subtype 1 expressed in CHO-K1 cells by calcium mobilization assay
T2 sequence (P11229 whole entry): T1 sequence (whole entry)

[3] = target: T1, Muscarinic acetylcholine receptor M1 (Homo sapiens); assay: as §1
[4] = target: T1, Muscarinic acetylcholine receptor M1 (Homo sapiens); assay: Positive allosteric modulator activity at human muscarinic receptor subtype 1 expressed in CHO-K1 cells at 30 uM by calcium mobilization assay relative to acetylcholine

SMILES | Emax [1] | EC50 ([2]; read-out: EC50) [µM] | EC50 ([2]; cho-k1) | pEC50 [3] | Emax [4] [%]
Cc1ccc(Cn2nc3c4ccccc4n(Cc4ccncc4)cc-3c2=O)c(C)c1 | 82% | 1.55 |  |  | 
Cn1cc(-c2ccc(Cn3nc4c5ccccc5[nH]cc-4c3=O)cc2)cn1 |  |  | Not Active | inactive | 
Cc1cccc(Cn2nc3c4ccccc4n(Cc4ccccc4)cc-3c2=O)c1 |  |  | Not Active | inactive | 
Cc1ccc(C)c(CN2C(=O)C(=O)c3ccccc32)c1 |  |  | Not Active |  | 
Cc1ccc(Cn2nc3c4ccccc4n(Cc4ccccn4)cc-3c2=O)c(C)c1 | 83% | 3.79 |  |  | 
Cc1ccc(Cn2nc3c4ccccc4n(Cc4cccc(F)c4)cc-3c2=O)c(C)c1 | 31% | 1.42 |  |  | 
O=c1c2cn(Cc3ccccc3)c3ccccc3c-2nn1Cc1ccc(F)cc1 |  |  | Not Active | inactive | 
Cc1ccc(Cn2cc3c(=O)n(Cc4ccc(C)cc4C)nc-3c3ccccc32)cc1 | inactive |  | Not Active | inactive | 
Cc1ccc(Cn2nc3c4ccccc4n(Cc4ccc(-c5cnn(C)c5)cc4F)cc-3c2=O)c(C)c1 | 74% | 1.94 |  |  | 
Cc1ccc(Cn2nc3c4ccccc4n(Cc4ccccc4)cc-3c2=O)cc1 |  |  | Not Active | inactive | 
COc1ccc(Cn2cc3c(=O)n(Cc4ccc(C)cc4C)nc-3c3ccccc32)c(F)c1 | inactive |  | Not Active | inactive | 
Cc1ccc(Cn2nc3c4ccccc4n(Cc4ccccc4C)cc-3c2=O)c(C)c1 | inactive |  | Not Active | inactive | 
O=C1C(=O)N(Cc2ccccc2)c2ccccc21 | 34% |  |  |  | 
O=c1c2c[nH]c3ccccc3c-2nn1Cc1ccc(-n2cccn2)cc1 |  |  | Not Active | inactive | 
Cc1ccc(Cn2nc3c4ccccc4n(Cc4ccc(F)cc4)cc-3c2=O)c(C)c1 | 47% | 2.02 |  |  | 
Cn1nc2c3ccccc3n(Cc3ccccc3)cc-2c1=O |  | > 10 |  |  | 48
O=c1c2c[nH]c3ccccc3c-2nn1[C@@H]1CCCC[C@H]1O |  |  | Not Active | inactive | 
O=c1[nH]nc2c3ccccc3n(Cc3ccc(-n4cccn4)cc3)cc1-2 | 83% | 1.2 |  |  | 
O=c1c2cn(Cc3ccccc3)c3ccccc3c-2nn1Cc1ccncc1 |  | > 10 |  |  | 54

SMILES | Emax [1] | EC50 ([2]; read-out: EC50) [µM] | EC50 ([2]; cho-k1) | pEC50 [3] | Emax [4] [%]
Cc1cc(NC(=O)CS(=O)(=O)c2cn(Cc3ccc(-c4cnn(C)c4)nc3)c3cc(F)cc(F)c23)no1 |  | 0.845 |  |  | 
O=c1c2cn(Cc3ccccc3)c3ccccc3c-2nn1Cc1cccnc1 | 65% | 6.31 |  |  | 
O=c1c2cn(Cc3ccccc3)c3ccccc3c-2nn1Cc1ccccc1F | 36% | 1.01 |  |  | 
Cc1ccc(C)c(Cn2nc3c4ccccc4[nH]cc-3c2=O)c1 |  | > 30 |  |  | 
O=c1c2cn(Cc3ccc(-n4cccn4)cc3)c3ccccc3c-2nn1Cc1ccccc1 |  | > 10 |  |  | 50
Cc1ccc(C)c(Cn2nc3c4ccccc4n(Cc4ccccc4)cc-3c2=O)c1 | 40% | 0.473 |  |  | 
O=c1c2cn(Cc3ccccc3)c3ccccc3c-2nn1Cc1ccccc1 |  |  | Not Active | inactive | 
Cc1cccc(Cn2cc3c(=O)n(Cc4ccc(C)cc4C)nc-3c3ccccc32)c1 | inactive |  | Not Active | inactive | 
Cc1ccc(Cn2nc3c4ccccc4n(Cc4cccnc4)cc-3c2=O)c(C)c1 | 75% | 3.66 |  |  | 
Cc1ccc(Cn2nc3c4ccccc4n(Cc4ccccc4F)cc-3c2=O)c(C)c1 | 46% | 0.656 |  |  | 
O=c1c2cn(Cc3ccccc3)c3ccccc3c-2nn1Cc1ccccn1 |  | > 10 |  |  | 59
Cn1nc2c3ccccc3n(Cc3ccc(-n4cccn4)cc3)cc-2c1=O | 88% | 2.43 |  |  | 
O=C1C(=O)N(Cc2ccc(-n3cccn3)cc2)c2ccccc21 | 61% |  |  |  | 
O=c1c2cn(Cc3ccccc3)c3ccccc3c-2nn1Cc1cccc(F)c1 |  |  | Not Active | inactive | 
Cc1ccc(Cn2nc3c4ccccc4n(Cc4ccc(-n5cccn5)cc4)cc-3c2=O)c(C)c1 | 80% | 1.15 |  |  | 
Cc1ccccc1Cn1nc2c3ccccc3n(Cc3ccccc3)cc-2c1=O | 47% | 0.783 |  |  | 
Cc1ccc(Cn2nc3c4ccccc4n(C)cc-3c2=O)c(C)c1 | inactive |  | Not Active | inactive | 
COc1ccc(Cn2cc3c(=O)n(Cc4ccc(C)cc4C)nc-3c3ccccc32)cc1 | 39% | 0.821 |  |  | 
Cn1cc(-c2ccc(Cn3cc4c(=O)[nH]nc-4c4ccccc43)c(F)c2)cn1 | 89% | 0.6 |  |  | 

Source: ChEMBL document CHEMBL3351707, “Discovery and SAR of muscarinic receptor subtype 1 (M1) allosteric activators from a molecular libraries high throughput screen. Part 1: 2,5-dibenzyl-2H-pyrazolo[4,3-c]quinolin-3(5H)-ones as positive allosteric modulators” (Bioorg Med Chem Lett, 2015)
